From patent publication US20040102442A1, “Remedies for alzheimer's disease” (priority 2000, published 2004)
pIC50: −log10 of the molar value.

biological target: T1, Human type-X sPLA2 (Homo sapiens, UniProt O15496); assay: type-X sPLA2 inhibition test (chromogenic assay, diheptanoylthio PC); format: biochemical; details: diheptanoylthio PC 1 mM, Triton X-100 0.3 mM, 30 min at 40° C., absorbance at 405 nm
T1 construct: made in house; host or cells: CHO cells, stably transfected with a pSVL expression vector; culture supernatant used as the enzyme source
T1 sequence (O15496 43-165): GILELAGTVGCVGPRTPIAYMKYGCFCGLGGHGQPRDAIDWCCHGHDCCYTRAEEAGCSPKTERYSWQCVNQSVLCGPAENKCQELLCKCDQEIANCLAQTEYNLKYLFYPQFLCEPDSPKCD
Source text: cDNA sequence encoding human type-X sPLA2 (Cupillard et al., J. Biol. Chem, 1997, 272, 15745-15752) was inserted into the downstream region of the promoter of pSVL SV40 Late Promoter Expression Vector (Amersham Pharmacia Biotech Inc.) that is an expression vector for mammalian cells. The obtained expression vector was transfected into the host CHO cells with a LipofectAMINE reagent (Gibco BRL Inc.) according to the manufacture's instruction to obtain the CHO cells stably expressing human type-X sPLA2. The transfected cell was cultured in A-MEM medium containing 10% fetal calf serum for 3 days and its culture supernatant was used for the measurement of each enzyme activity.
In order to identify and evaluate an inhibitor of type-X sPLA2, the following chromogenic assay is utilized. This assay has been applied for high volume screening using a 96-well microtiterplate. A general explanation for this assay is described in “Analysis of Human Synovial Fluid Phospholipase A2 on Short Chain Phosphatidylcholine-Mixed Micelles: Development of a Spectrophotometric Assay Suitable for a Micortiterplate Reader” (Analytical Biochemistry, 204, pp 190-197, 1992 by Laure. J. Reynolds. Lori L. Hughes and Edward A. Dennis.
Human type-X sPLA2 was incubated (30 min at 40° C. (15 μl/well)) with diheptanoylthio PC (1 mM) in the presence of Triton X-100 (0.3 mM) and 5,5′-dithiobis(2-nitrobenzoic acid) (125 μM) in Tris-HCl buffer (25 mM, pH 7.5) containing CaCl2 (10 mM), KCl (100 mM), and bovine serum albumin (1.0 mg/mL). The changes in the absorbance at 405 nm were measured and the inhibition activities were calculated.

SMILES	pIC50
CCc1c(C(=O)C(N)=O)c2c(OCC(=O)O)nc(-c3ccccc3)cn2c1Cc1ccccc1 [Compound 3]	8.30
CCCc1c(C(=O)C(N)=O)c2c(OCC(=O)O)nc(C)cn2c1CC1CCCCC1 [Compound 5]	7.92
CCc1c(C(=O)C(N)=O)c2c(OCC(=O)O)nc(C3CCCCC3)cn2c1Cc1ccccc1 [Compound 16]	8.15
CCc1c(C(=O)C(N)=O)c2c(OCC(=O)NS(=O)(=O)c3ccccc3)cccc2n1Cc1ccccc1 [Compound 18]	7.80

The next lines start with the values.

pIC50	SMILES
8.00	CCc1c(C(=O)C(N)=O)c2c(OCC(=O)O)nc(C)cn2c1Cc1cccc(-c2ccccc2)c1 [Compound 1]
8.00	CCc1c(C(=O)C(N)=O)c2c(OCC(=O)O)nc(C)cn2c1Cc1ccccc1Cc1ccccc1 [Compound 2]
7.57	CCCc1c(C(=O)C(N)=O)c2c(OCC(=O)O)nc(C)cn2c1Cc1ccccc1 [Compound 4]
